Test results taken from US20080076746A1, “Method of Treating Fish and Crustaceans With a Tellurium Based Immunomodulator” (priority 2003, published 2008).
Entries after “also recorded” stand apart in the source; their conditions may differ.

Tests used:
tilapia IL-10L = test: AS101 effect on intracellular IL-10L levels of tilapia PBL cell cultures (Western blot); type: cell-based, Tilapia hybrids (Oreochromis niloticus X O. aureus); conditions: 0.5 μg/ml AS101; dose-dependant; FIG. 1
Protocol: For in-vitro studies, AS101 was supplied as PBS solution, pH 7.4, at 4° C. For in-vivo experiments, AS101 powder was dissolved in the appropriate concentration in re-circulating water. PBL (peripheral blood leukocytes) were isolated from heparinized blood on a ficoll paque bed (Amersham Bioscience) and cultured as previously reported (9). For AS101 treatments, AS101 was added directly to the cultures at final concentration of 0.025 to 25 μg/ml, preferably 0.05 to 0.5 μg/ml. PBL were lysed as previously reported (6). Samples were electrophoresed on 12% SDS-PAGE and blotted with anti-human-IL-10 mAb (Santa Cruz Biotechnology, Inc sc-8438) (1:660 dilution) and HRP-conjugate secondary Ab (Jackson Immuno-Research) (1:6600 dilution).

IL-10L = test: Serum IL-10L levels in air-exposure stressed fish after AS101 bath immersion (ELISA); type: in vivo
Protocol: For in-vitro studies, AS101 was supplied as PBS solution, pH 7.4, at 4° C. For in-vivo experiments, AS101 powder was dissolved in the appropriate concentration in re-circulating water.
(§1) Fish were subjected to air exposure stress every 60 min for 90 sec during 4 hours (10). The fish were then divided into groups of 3, each separately held in 40 L plastic containers at 28°±2° C.
Fish blood was coagulated during 2 hours at room temperature, then centrifuged for 10 min at 1800×g. IL-10L levels were quantified in the collected sera using ELISA (Human Interleukin-10 ELISA Kit, pierce-endogen) according to manufacturer's instructions.

Aeromonas salmonicida = test: Stressed fish infected with Aeromonas salmonicida and immersed in soluble AS101; type: in vivo, goldfish (Carassius auratus); conditions: vs stressed infected fish not treated with AS101
Protocol: as §1

[1] = tested on: tilapia PBL (peripheral blood leukocytes); test: Cell toxicity in AS101-treated cell cultures (Blue staining); type: cell-based, Tilapia hybrids (Oreochromis niloticus X O. aureus); conditions: all AS101 doses, vs control
Protocol: PBL (peripheral blood leukocytes) were isolated from heparinized blood on a ficoll paque bed (Amersham Bioscience) and cultured as previously reported (9). For AS101 treatments, AS101 was added directly to the cultures at final concentration of 0.025 to 25 μg/ml, preferably 0.05 to 0.5 μg/ml.

Compound: Cl[TeH]1(Cl)(Cl)OCCO1 [AS101, ammonium trichloro [dioxyethylene-O, O′] telurate]
- inhibition of intracellular tilapia IL-10L synthesis (tilapia IL-10L): complete inhibition
- serum IL-10L level (IL-10L; 2 hours post-stress, bath immersion in 20-ppm water solution, maximal effect, decrease from 719 in stressed fish, FIG. 3): 209 pg/mL
- serum IL-10L change (IL-10L; 6 hours after stress induction and bath immersion in different AS101 concentrations, 20 μg/ml most efficient): significant IL-10L decrease
- rate of survival (Aeromonas salmonicida; FIG. 5): higher survival rates; also recorded: higher rate of survival
- number of wounds per fish (Aeromonas salmonicida; p=0.073, FIG. 4): significantly lower number of wounds per fish; also recorded: significantly less wounds
- cell death (cell toxicity) [1]: did not show elevated cell death beyond control
